ChEMBL document CHEMBL5528067, “From Synergy to Monotherapy: Discovery of Novel 2,4,6-Trisubstituted Triazine Hydrazone Derivatives with Potent Antifungal Potency In Vitro and In Vivo” (J Med Chem, 2024)
In brackets after ≈: the same amount, converted by molar mass. Activity calls are given as the source filed them. The rule behind the calls is not given here.

Tests used:
[1] = Metabolic stability in mouse liver microsomes assessed as intrinsic clearance measured per mg of protein upto 60 mins by LC-MS/MS analysis; format: ADME, Microsome; settings: read-out: CLH
[2] = Metabolic stability in mouse liver microsomes assessed as half life measured upto 60 mins by LC-MS/MS analysis; format: ADME, Microsome
[Candida] auris [3] = Antifungal activity against FCZ-resistant Candida auris 918 assessed as growth inhibition measured after 48 hrs incubation by CLSI based micro-dilution broth method; format: functional; settings: Candidozyma auris
Candida albicans [4] = experiment: Antifungal activity against FCZ-resistant Candida albicans strains assessed as growth inhibition measured after 48 hrs incubation by CLSI based micro-dilution broth method; format: functional
[Candida] auris [5] = Antifungal activity against FCZ-resistant Candida auris 919 assessed as growth inhibition measured after 48 hrs incubation by CLSI based micro-dilution broth method; format: functional; settings: Candidozyma auris
[6] = biological target: T1, Lanosterol 14-alpha demethylase (Candida albicans (strain SC5314 / ATCC MYA-2876) (Yeast), UniProt P10613); experiment: Inhibition of CYP51 in Candida albicans SC5314 assessed as accumulation of 14alpha-methylfecosterol at 4 microg/ml measured after 8 hrs by GC-MS analysis; settings: dose 4 µg/ml
T1 sequence (P10613 whole entry): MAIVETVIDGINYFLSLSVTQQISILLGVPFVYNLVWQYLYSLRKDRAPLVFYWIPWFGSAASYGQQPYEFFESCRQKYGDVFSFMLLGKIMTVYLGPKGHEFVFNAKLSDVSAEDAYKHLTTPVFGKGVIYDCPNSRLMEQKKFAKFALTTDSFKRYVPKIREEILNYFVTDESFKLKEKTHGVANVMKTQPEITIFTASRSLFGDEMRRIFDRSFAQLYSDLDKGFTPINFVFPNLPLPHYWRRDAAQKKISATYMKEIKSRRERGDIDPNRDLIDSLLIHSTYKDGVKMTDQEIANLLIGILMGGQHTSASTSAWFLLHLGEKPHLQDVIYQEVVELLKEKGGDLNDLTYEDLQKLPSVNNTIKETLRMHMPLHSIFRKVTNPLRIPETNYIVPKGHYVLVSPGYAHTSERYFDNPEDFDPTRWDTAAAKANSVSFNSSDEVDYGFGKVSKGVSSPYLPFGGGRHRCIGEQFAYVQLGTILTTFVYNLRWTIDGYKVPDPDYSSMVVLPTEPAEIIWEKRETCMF

Candida albicans [7] = experiment: In vivo antifungal activity against Candida albicans SC5314 infected in C57BL/6J mouse assessed as reduction in fungal burden in kidney at 0.5 mg/kg, po treated once a day for 2 days; format: functional, organism-based; settings: time 2.0 day
Cryptococcus neoformans [8] = experiment: Antifungal activity against Cryptococcus neoformans 32609 assessed as growth inhibition measured after 48 hrs incubation by CLSI based micro-dilution broth method; format: functional
Candida albicans [9] = experiment: Antifungal activity against FCZ-resistant Candida albicans strain 904 assessed as growth inhibition measured after 48 hrs incubation by CLSI based micro-dilution broth method; format: functional
[10] = biological target: T1, Lanosterol 14-alpha demethylase; experiment: Inhibition of CYP51 in Candida albicans SC5314 assessed as accumulation of obtusifoliol at 4 microg/ml measured after 8 hrs by GC-MS analysis; settings: dose 4 µg/ml
Nakaseomyces glabratus [11] = experiment: Antifungal activity against Candida glabrata 537 assessed as growth inhibition measured after 48 hrs incubation by CLSI based micro-dilution broth method; format: functional
[12] = biological target: T1, Lanosterol 14-alpha demethylase; experiment: Inhibition of CYP51 in Candida albicans SC5314 assessed as accumulation of eburicol at 4 microg/ml measured after 8 hrs by GC-MS analysis; settings: dose 4 µg/ml
Candida tropicalis = experiment: Antifungal activity against Candida tropicalis 8915 assessed as growth inhibition measured after 48 hrs incubation by CLSI based micro-dilution broth method; format: functional
[13] = Cytotoxicity against human HUVEC cells assessed as cell viability at 16 microg/ml measured after 24 hrs by CCK-8 assay relative to control; format: toxicity, cell-based; settings: at 16 µg/mL, read-out: Activity
Candida albicans [14] = experiment: Antifungal activity against FCZ-resistant Candida albicans strains assessed as growth inhibition in presence of (E)-2-((4,6-Bis((4-fluorobenzyl)amino)-1,3,5-triazin-2-yl)hydrazineylidene)methyl)-4-nitrophenol measured after 48 hrs incubation by CLSI based micro-dilution broth method; format: functional
Pichia kudriavzevii [15] = experiment: Antifungal activity against Candida krusei 4996 assessed as growth inhibition measured after 48 hrs incubation by CLSI based micro-dilution broth method; format: functional
Candida albicans [16] = experiment: Antifungal activity against FCZ-resistant Candida albicans SC5314 assessed as growth inhibition at 4 microg/ml measured at 12 hrs incubation by time growth assay; format: functional, organism-based; settings: dose 4.0 µg/ml
Candida albicans [17] = experiment: Antifungal activity against FCZ-resistant Candida albicans strain 901 assessed as growth inhibition measured after 48 hrs incubation by CLSI based micro-dilution broth method; format: functional
Pichia kudriavzevii [18] = experiment: Antifungal activity against FCZ-resistant Candida krusei 4996 assessed as growth inhibition at 32 microg/ml measured at 24 hrs incubation by time growth assay; format: functional, organism-based; settings: dose 32.0 µg/ml
Cryptococcus neoformans [19] = experiment: Antifungal activity against FCZ-resistant Cryptococcus neoformans 32609 assessed as growth inhibition at 1 microg/ml measured at 24 hrs incubation by time growth assay; format: functional, organism-based; settings: dose 1.0 µg/ml
Candida albicans [20] = experiment: Antifungal activity against FCZ-resistant Candida albicans SC5314 assessed as growth inhibition measured after 48 hrs incubation by CLSI based micro-dilution broth method; format: functional
[21] = Hemolytic activity in rabbit Red blood cell assessed as hemolysis rate at 64 microg/ml incubated for 1 hr; format: toxicity, cell-based, Oryctolagus cuniculus, Erythrocyte; settings: red blood cells, at 64 µg/mL, read-out: Activity
[22] = biological target: T1, Lanosterol 14-alpha demethylase; experiment: Inhibition of CYP51 in Candida albicans SC5314 assessed as decrease in ergosterol biosynthesis at 4 microg/ml measured after 8 hrs by GC-MS analysis (reference value: 88.32%); parameters: scale not given: the % may be the effect or the level left; settings: at 4 µg/mL
Candida parapsilosis = experiment: Antifungal activity against Candida parapsilosis 22019 assessed as growth inhibition measured after 48 hrs incubation by CLSI based micro-dilution broth method; format: functional; settings: Lodderomyces parapsilosis
Nakaseomyces glabratus [23] = experiment: Antifungal activity against FCZ-resistant Candida glabrata 537 assessed as growth inhibition at 4 microg/ml measured at 12 hrs incubation by time growth assay; format: functional, organism-based; settings: dose 4.0 µg/ml
Candida albicans [24] = experiment: Antifungal activity against FCZ-resistant Candida albicans 10231 assessed as growth inhibition measured after 48 hrs incubation by CLSI based micro-dilution broth method; format: functional
[25] = Cytotoxicity against human HUVEC cells assessed as cell viability measured after 24 hrs by CCK-8 assay; format: toxicity, cell-based
Candida albicans [26] = experiment: In vivo antifungal activity against Candida albicans SC5314 infected in C57BL/6J mouse assessed as reduction in fungal burden in kidney at 10 mg/kg, po treated once a day for 2 days; format: functional, organism-based; settings: time 2.0 day
Candida albicans [27] = experiment: Synergistic antifungal activity against FCZ-resistant Candida albicans strain 904 assessed as fractional inhibitory concentration index measured after 48 hrs in presence of FCZ by CLSI based micro-dilution broth method; format: functional
Candida albicans [28] = experiment: Antifungal activity against FCZ-resistant Candida albicans strain 901 assessed as growth inhibition in presence of fluconazole measured after 48 hrs incubation by CLSI based micro-dilution broth method; format: functional
Candida albicans [29] = experiment: Synergistic antifungal activity against FCZ-resistant Candida albicans strain 901 assessed as fractional inhibitory concentration index measured after 48 hrs in presence of FCZ by CLSI based micro-dilution broth method; format: functional
Candida albicans [30] = experiment: Antifungal activity against FCZ-resistant Candida albicans strain 904 assessed as growth inhibition in presence of fluconazole measured after 48 hrs incubation by CLSI based micro-dilution broth method; format: functional
[31] = Hemolytic activity in rabbit Red blood cell assessed as hemolysis rate at 8 microg/ml incubated for 1 hr; format: toxicity, cell-based, Oryctolagus cuniculus, Erythrocyte; settings: red blood cells, at 8 µg/mL, read-out: Activity

SMILES | MIC80 ([Candida] auris [3]) | MIC80 (Candida albicans [4]) | MIC80 ([Candida] auris [5]) | MIC80 (Cryptococcus neoformans [8]) | MIC80 (Candida albicans [9]) | MIC80 (Nakaseomyces glabratus [11]) | MIC80 (Candida tropicalis) | viability at 24 h, 16 microg/ml [13] | MIC80 (Pichia kudriavzevii [15]) | MIC80 (Candida albicans [17]) | MIC80 (Candida albicans [20]) | hemolysis at 1 h, 64 microg/ml [21] | MIC80 (Candida parapsilosis) | MIC80 (Candida albicans [24]) | fractional inhibitory concentration index (FICI) (Candida albicans [27]) | MIC80 (Candida albicans [28]) | fractional inhibitory concentration index (FICI) (Candida albicans [29]) | MIC80 (Candida albicans [30]) | other results
Cc1ncc2n1-c1ccc(Cl)cc1C(c1ccccc1F)=NC2 [MIDAZOLAM] |  |  |  |  |  |  |  |  |  |  |  |  |  |  |  |  |  |  | microsomal CLint [1]: 1120 µL/min/mg; half-life [2]: 3.09 min
OC(Cn1cncn1)(Cn1cncn1)c1ccc(F)cc1F [FLUCONAZOLE] | > 64 µg/mL | > 64 µg/mL | > 64 µg/mL | 2 µg/mL (≈ 6.53 µM) | > 64 µg/mL | 1 µg/mL (≈ 3.27 µM) | 0.5 µg/mL (≈ 1.63 µM) | 82.8% | 64 µg/mL (≈ 209 µM) | > 64 µg/mL | 0.5 µg/mL (≈ 1.63 µM) | 23.9% | 2 µg/mL (≈ 6.53 µM) | 64 µg/mL (≈ 209 µM) |  |  |  |  | Activity [6]: Active; Activity (Candida albicans [7]): Active; Activity [10]: Active; Activity [12]: Active; MIC80 (Candida albicans [14]): 1 µg/mL; Activity (Candida albicans [16]): Active; Activity (Pichia kudriavzevii [18]): Active; Activity (Cryptococcus neoformans [19]): inactive; Activity [22]: 2.91%; Activity (Nakaseomyces glabratus [23]): inactive
NCCOCCOCCNC(=O)Cc1ccc(Nc2nc(NCc3ccc(F)cc3)nc(NCC3CCCCC3)n2)cc1 | 32 µg/mL (≈ 53.8 µM) |  | 32 µg/mL (≈ 53.8 µM) | 16 µg/mL (≈ 26.9 µM) | 32 µg/mL (≈ 53.8 µM) | 32 µg/mL (≈ 53.8 µM) | 32 µg/mL (≈ 53.8 µM) | 89.8% | 32 µg/mL (≈ 53.8 µM) |  | 16 µg/mL (≈ 26.9 µM) | 3.48% | 32 µg/mL (≈ 53.8 µM) | 32 µg/mL (≈ 53.8 µM) | 0.38 | 16 µg/mL | 0.63 | 8 µg/mL | IC50 at 24 h [25]: 48.2 µg/mL (≈ 81.1 µM); Activity (Candida albicans [26]): Active
C[C@@H]1[C@H](O)[C@@H](C)/C=C/C=C/C=C/C=C/C=C/C=C/C=C/[C@H](O[C@@H]2O[C@H](C)[C@@H](O)[C@H](N)[C@@H]2O)C[C@@H]2O[C@](O)(C[C@@H](O)C[C@@H](O)[C@H](O)CC[C@@H](O)C[C@@H](O)CC(=O)O[C@H]1C)C[C@H](O)[C@H]2C(=O)O [AMPHOTERICIN B] |  |  |  |  |  |  |  |  |  |  |  |  |  |  |  |  |  |  | hemolysis at 1 h, 8 microg/ml [31]: 50.7%
O=[N+]([O-])c1cccc(/C=N/Nc2nc(NCc3ccc(F)cc3)nc(NCc3ccc(F)cc3)n2)c1O | 4 µg/mL (≈ 7.9 µM) |  | 32 µg/mL (≈ 63.2 µM) | 1 µg/mL (≈ 1.97 µM) | 1 µg/mL (≈ 1.97 µM) | 1 µg/mL (≈ 1.97 µM) | 2 µg/mL (≈ 3.95 µM) |  | 2 µg/mL (≈ 3.95 µM) | 2 µg/mL (≈ 3.95 µM) | 8 µg/mL (≈ 15.8 µM) |  | 2 µg/mL (≈ 3.95 µM) | 32 µg/mL (≈ 63.2 µM) | 0.38 | 0.25 µg/mL | 0.25 | 0.25 µg/mL | 
O=[N+]([O-])c1cccc(O)c1/C=N/Nc1nc(NCc2ccc(F)cc2)nc(NCc2ccc(F)cc2)n1 | > 64 µg/mL | 4 µg/mL (≈ 7.9 µM) | > 64 µg/mL | > 64 µg/mL | 4 µg/mL (≈ 7.9 µM) | 2 µg/mL (≈ 3.95 µM) | > 64 µg/mL |  | > 64 µg/mL | 4 µg/mL (≈ 7.9 µM) | > 64 µg/mL |  | > 64 µg/mL | > 64 µg/mL | 0.38 | 0.25 µg/mL | 0.19 | 1 µg/mL | 
